The assay deals with ATB serum IgGs. Kind of assay: Antigen competition binding analysis with beads displaying 2-B. On the set-up: species or system human. As to conditions: pooled ATB serum, beads displaying 2-B; CFP 250 μg/mL.

“Also recorded” adds a separate entry of the source.

As for “recombinant Ag85A: Mycobacterium tuberculosis recombinant protein reference standard Ag85A, NR-49427”, the “competition with 2-B for binding ATB serum IgGs” value is on record as “unreactive; also recorded: did not compete”. The result for “Ag85A: Mycobacterium tuberculosis purified native protein Ag85A (Rv3804c), Strain H37Rv” reads “competed; also recorded: compete strongly”.

The values above are taken from patent US20200190507A1, “Encoded Solid Phase Compound Library with Polynucleotide Based Barcoding” (The Scripps Research Institute, priority 2016, published 2020).
